Tests used:
[1] = Ethyl glucuronide levels in postmortem urine by SPE and HPLC-PED; design: species or system human; conditions: in vivo
Protocol: A ternary gradient solvent delivery pump 106 (Model 8800; Spectra Physics, Mountain View, Calif.) equipped with mixing chamber 104 and on-line degasser unit 102 (Model KT-35M; Shodex, Clear Brook, Va.) were used to provide solvent delivery to analytical column 110. In certain embodiments, isocratic separations are performed using a 1% acetic acid/water:acetonitrile (98:2, v/v) mobile phase set to a flow rate of 1.0 mL ? min-1. Injection valve 108 (Model 7010; Rheodyne, Rohnert Park, Calif.) is fitted with a 50 μL injection loop. Separations can be performed using any suitable analytical column, selected based upon the glucuronide(s) of interest. For example, a reversed-phase (C18; 250×4.6 mm, 5 μm, 100 Å) Denali column (Vydac, Columbia, Md.) with guard column (C18; 7.5×4.6 mm, 5 μm; Vydac) can be used, or a bonded-phase silica column comprising a C18 functional group bonded to its surface using a sulfonamide group coupled to an ether linkage (DIONEX® PA column, DIONEX®, Sunnyvale, Calif.) can be used. Post-column addition of NaOH 112 (for example, 600 mM NaOH), necessary to promote PED-activity, was accomplished by a reagent delivery module (RDM, Dionex, Sunnyvale, Calif.). […]
All urine samples (1.0 mL) were pretreated with 100 μL of 3 M HCl and 3 mL acetonitrile. […] The reconstituted solution was diluted further to bring EtG within the linear range of quantitation. […]

[2] = after alcohol consumption; cited from earlier work

CCO[C@@H]1O[C@H](C(=O)O)[C@@H](O)[C@H](O)[C@H]1O [EtG, Ethyl glucuronide]
EtG levels in postmortem samples [1]: 3 to 700 µg/mL | period of detection after the complete elimination of alcohol from the body [2]: up to 80 h
